Data set [1] relates to airway epithelial Na^+ currents. Briefly: Lumenal drug inhibition of airway epithelial Na+ currents, monolayers in Ussing chambers, with wash-out. The class given is cell-based, human or dog. The conditions noted are these: for Effect of washout (3) 100% = Baseline: after maximal concentration (10^-4 M), lumenal bath exchanged three times with fresh KBR; for pIC50 / Max Inhibition (%) from baseline: mucosal bath, voltage clamp; for pIC50: half-log dose addition. The method, then: In the second potency assay, airway epithelial monolayers mounted were in Ussing chambers: The principal assay consisted of tests of lumenal drug inhibition of airway epithelial Na^+ currents. Cells obtained from freshly excised human or dog airways were seeded onto SNAP-well Inserts (CoStar), cultured under air-liquid (ALI) conditions in hormonally defined media. The cells were assayed for Na^+ transport activity while bathed in Krebs bicarbonate Ringer (KBR) in the Ussing chambers under voltage clamp conditions. All test drug additions were to the mucosal bath with half-log dose addition protocols (10^−11 M-[…]). All drugs were made in standard stocks of 10^−2 M drug in DMSO. Eight preparations were typically run in parallel; two preparations/run were routinely used to assay amiloride and benzamil. After the maximal concentration (10^−4 M) was administered, the lumenal bath was exchanged three times with fresh KBR solution, which was defined as the “wash-out” effect. All data from the voltage clamps were collected via a computer interface and analyzed off-line.
Dose-effect relationships for all compounds were considered and analyzed by the Prism 3.0 program. The IC50, maximal effective concentrations, and percent washout were calculated and compared to those of amiloride and benzamil as reference compounds.
The first assay is referred to an assay of reversibility. Empirically, the percent of wash-out correlates with cellular uptake. The relationship is complex because reversibility is also a function of potency. However, reversibility is a quick and simple screen. The compounds that “reverse” best in this assay referenced to benzamil were also the least absorbed in the confocal assay, as described below.

Data set [2] relates to cultured airway epithelia. Briefly: Confocal microscopy assay of drug uptake into cultured airway epithelia. The class given is cell-based. The conditions noted are these: compound on apical surface of airway cultures, x-z confocal microscopy; relative to amiloride. On the procedure:
FIG. 2 is an example of a confocal microscopy assay of drug uptake into cultured airway epithelia. In this assay, a compound (10^−4 M) is placed on the airway surface and fluorescence from the cells collected by x-z scanning confocal microscopy. The images shown on the left depict fluorescence in the cells 20 minutes after exposure to amiloride, benzamil and phenamil. Quantitation of the drug uptake is graphically illustrated on the right in terms of units of fluorescence.
The second assay utilizes confocal microscopy of amiloride congener uptake: Virtually all amiloride-like molecules fluoresce in UV range. This property of these molecules was used to directly measure cellular uptake, using a x-z confocal microscope (Leica). […] Serial x-z images were obtained with time and the magnitude of fluorescence accumulating in the cell compartment quantitated and plotted. […] Two compounds from the synthesis series described above (CF-509 and CF-519) appear to fulfil this criterion. Compounds that were equipotent or greater with amiloride were tested for wash-out as described above. However, because wash-out may reflect both potency and cell uptake, the rate of accumulation of fluorescence (indexed to the specific fluorescence/emission spectrum of each compound) in the cell compartment as a function of time was also routinely measured. […]

pIC50: −log10 of the molar value. Counter-ions that a name gives are not always drawn.

In general, pIC50 refers to the negative decadic logarithm of the IC50, by convention in mol/L. High values mean a small IC50, low ones a large IC50. Consider `Br.Br.N=C(NCc1cccc(CNC(=N)NC(=O)c2nc(Cl)c(N)nc2N)c1)NC(=O)c1nc(Cl)c(N)nc1N` [CF-512, 1,3-Bis[(3,5-diamino-6-chloropyrazinovl)guanidino]xylylene Dihydrobromide], for which, in data set [1], the “Effect of washout (3) 100% = Baseline” value amounted to 60%, the pIC50 is 6.71 and the “Max Inhibition (%) from baseline” value worked out at 92%.
On the same counts, the results for `N/C(=N\C(=O)c1nc(Cl)c(N)nc1N)NCc1ccc(CN/C(N)=N/C(=O)c2nc(Cl)c(N)nc2N)cc1` [CF-516, 1,4-Bis[(3,5-diamino-6-chloropyrazinoyl)guanidinol]xylylene Dihydrobromide] are 65%, 6.48 and 90%.
Regarding `NC(=NCc1ccccc1)NC(=O)c1nc(Cl)c(N)nc1N` [benzamil, 3,5-diamino-6-chloro-N-(benzylaminoaminomethylene) pyrazinecarboxamide, reference compound], in data set [2], the “Cellular uptake (fluorescence accumulating in the cell compartment)” value is reported as “rapid”.
